Values of other authors as cited in patent US4533546A, “Antiinflammatory analgesic gelled ointments” (Lederle (Japan), Ltd., priority 1983, dated 1985).

Assays:
digestive organs = settings: oral, background statement in words
[1] = in water and various pharmaceutically acceptable solvents; in words

Row | Structure (SMILES) | side-effects (digestive organs) | solubility [1]
1 | COc1ccc2c(c1)c(CC(=O)O)c(C)n2C(=O)c1ccc(Cl)cc1 [indomethacin] | side-effects on the digestive organs | 
2 | CC(C)Cc1ccc(C(C)C(=O)O)cc1 (centres unmarked) [ibuprofen] | side-effects on the digestive organs | 
3 | O=C(O)Cc1ccc(-c2ccccc2)cc1 [4-biphenylylacetic acid] | side-effects on the digestive organs | insoluble or only sparingly soluble in water and various pharmaceutically acceptable solvents
4 | CC(C)Cc1ccc(CC(=O)O)cc1 [ibufenac] | side-effects on the digestive organs | 
